Patent US20240132464A1, “HETEROCYCLIC COMPOUNDS AS E3 LIGASE INHIBITORS” (Accutar Biotechnology Inc., priority 2022, published 2024)

Molecular target: T1, GID4 (Uniprot ID: Q81VV7, residues 124-289) (Homo sapiens, UniProt Q8IVV7)
T1 construct: GID4 (Uniprot ID: Q81VV7, residues 124-289)
T1 sequence (Q8IVV7 124-289): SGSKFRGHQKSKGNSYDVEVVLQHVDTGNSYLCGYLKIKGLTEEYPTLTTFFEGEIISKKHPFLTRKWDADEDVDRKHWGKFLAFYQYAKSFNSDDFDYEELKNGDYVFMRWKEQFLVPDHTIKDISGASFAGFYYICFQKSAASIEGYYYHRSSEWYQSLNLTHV
Assay: GID4 competitive binding assay (AlphaScreen, GID4/degron peptide PGLW)
Conditions: 24 nM GID4, 48 nM biotinylated degron peptide PGLW, 4° C., read-out: IC50 (Inhibition of GID4/Degron binding by test compounds)
Summary of the method: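 Displacement of biotin-tagged degron tetrapeptide PGLW (48 nM) from C-terminally 6His-tagged GID4 124-289 (24 nM) read by AlphaScreen proximity signal. Compound incubation 2 h, then beads 1 h, all at 4 °C, pH 7.5, 2% DMSO final; background-corrected inhibition fitted with variable slope for IC50.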

Row | SMILES | IC50 [µM]
1 | CNc1cc(N2CCC[C@H](c3ccccc3Br)C2)nc(NC)n1 (stereo in doubt) [Compound 83, (R/S)-6-(3-(2-bromophenyl)piperidin-1-yl)-N2,N4-dimethylpyrimidine-2,4-diamine] | 0.5 to 5
2 | CNc1cc(N2CCN(C)[C@@H](c3ccccc3Br)C2)nc(NC)n1 (stereo in doubt) [Compound 81, (S/R)-6-(3-(2-bromophenyl)-4-methylpiperazin-1-yl)-N2,N4-dimethylpyrimidine-2,4-diamine] | 0.5 to 5
3 | Nc1nc(NCC2CC2)cc(N2CCNC(c3ccccc3Br)C2)n1 (single isomer, unassigned) [Compound 111, (R/S)-6-(3-(2-bromophenyl)piperazin-1-yl)-N4-(cyclopropylmethyl)pyrimidine-2,4-diamine] | 0.5 to 5
4 | Nc1cc(N2CCN(CCO)[C@H](c3ccccc3Br)C2)nc(NC2CC2)n1 (stereo in doubt) [Compound 70, (R/S)-2-(4-(6-amino-2-(cyclopropylamino)pyrimidin-4-yl)-2-(2-bromophenyl)piperazin-1-yl)ethan-1-ol] | 0.5 to 5
5 | Nc1nc(NC2CC2)cc(N2CCN(CCO)C(c3ccccc3Br)C2)n1 (single isomer, unassigned) [Compound 44, (R/S)-2-(4-(2-amino-6-(cyclopropylamino)pyrimidin-4-yl)-2-(2-bromophenyl)piperazin-1-yl)ethan-1-ol] | 0.5 to 5
6 | Nc1nc(N)c(Cl)c(N2CCNC(c3ccccc3Br)C2)n1 (centres unmarked) [Compound 68, 6-(3-(2-bromophenyl)piperazin-1-yl)-5-chloropyrimidine-2,4-diamine] | > 5
7 | CN1CCN(c2cc(N)nc(NC3CC3)n2)CC1c1ccccc1Br (centres unmarked) [Compound 71, 6-(3-(2-bromophenyl)-4-methylpiperazin-1-yl)-N2-cyclopropylpyrimidine-2,4-diamine] | < 0.5
8 | CNc1nc(N)cc(N2CCNC(c3ccccc3Br)C2)n1 (single isomer, unassigned) [Compound 113, (R/S)-6-(3-(2-bromophenyl)piperazin-1-yl)-N2-methylpyrimidine-2,4-diamine] | 0.5 to 5

Continued, values first:

Row | IC50 [µM] | SMILES
9 | > 5 | CNc1cc(N2CCN[C@@H](c3ccccc3Br)C2)nc(NC)n1 (stereo in doubt) [Compound 130, (S/R)-6-(3-(2-bromophenyl)piperazin-1-yl)-N2,N4-dimethylpyrimidine-2,4-diamine]
10 | < 0.5 | CN1CC(CNC(=O)c2n[nH]c3ccc(-c4ccc5ccnc(N)c5c4)cc23)C1 [Compound 334, 5-(1-aminoisoquinolin-7-yl)-N-((1-methylazetidin-3-yl)methyl)-1H-indazole-3-carboxamide]
11 | > 5 | Cc1ccccc1C1CN(c2cc(C(C)C)nc(N)n2)CCN1 (centres unmarked) [Compound 177, 4-isopropyl-6-(3-(o-tolyl)piperazin-1-yl)pyrimidin-2-amine]
12 | < 0.5 | CN1CCC(CNC(=O)c2ccc(-c3cc(O)c4ncccc4c3)cc2)C1 (centres unmarked) [Compound 292, 4-(8-hydroxyquinolin-6-yl)-N-((1-methylpyrrolidin-3-yl)methyl)benzamide]
13 | > 5 | CC(C)c1cc(N2CCCC(O)(c3cnc4ccccn34)C2)nc(N)n1 (centres unmarked) [Compound 243, 1-(2-amino-6-isopropylpyrimidin-4-yl)-3-(imidazo[1,2-a]pyridin-3-yl)piperidin-3-ol]
14 | 0.5 to 5 | CN(C)CCNC(=O)c1n[nH]c2ccc(-c3ccc4ccnc(N)c4c3)nc12 [Compound 327, 5-(1-aminoisoquinolin-7-yl)-N-(2-(dimethylamino)ethyl)-1H-pyrazolo[4,3-b]pyridine-3-carboxamide]
15 | > 5 | Nc1nc(C2CCC2)cc(N2CCCC(c3ccn[nH]3)C2)n1 (centres unmarked) [Compound 212, 4-(3-(1H-pyrazol-5-yl)piperidin-1-yl)-6-cyclobutylpyrimidin-2-amine]
16 | < 0.5 | Nc1nc(NC2CC2)cc(N2CCN[C@@H](c3ccccc3Br)C2)n1 (racemic) [Compound 122, (S/R)-6-(3-(2-bromophenyl)piperazin-1-yl)-N4-cyclopropylpyrimidine-2,4-diamine]
17 | 0.5 to 5 | CC(C)c1cc(N2CCCC(c3nn(C)c4ccccc34)C2)nc(N)n1 (centres unmarked) [Compound 232, 4-isopropyl-6-(3-(1-methyl-1H-indazol-3-yl)piperidin-1-yl)pyrimidin-2-amine]
